What is called IC50 is the concentration needed to halve the response being measured. A higher IC50 goes with a need for much substance.

IC50 data for ten molecules are collected here from patent US20260242351A1, “LZK INHIBITORS” (Uereka Biosciences, Inc., priority 2023, published 2026).

Each structure is given as a SMILES string. Structures can show the parent of a compound that is named as a salt.

Assay [1] addresses T1, DLK (Homo sapiens, UniProt Q12852).
T1 construct: made in house; host or cells: HEK-293 cells
T1 sequence (Q12852 1-859): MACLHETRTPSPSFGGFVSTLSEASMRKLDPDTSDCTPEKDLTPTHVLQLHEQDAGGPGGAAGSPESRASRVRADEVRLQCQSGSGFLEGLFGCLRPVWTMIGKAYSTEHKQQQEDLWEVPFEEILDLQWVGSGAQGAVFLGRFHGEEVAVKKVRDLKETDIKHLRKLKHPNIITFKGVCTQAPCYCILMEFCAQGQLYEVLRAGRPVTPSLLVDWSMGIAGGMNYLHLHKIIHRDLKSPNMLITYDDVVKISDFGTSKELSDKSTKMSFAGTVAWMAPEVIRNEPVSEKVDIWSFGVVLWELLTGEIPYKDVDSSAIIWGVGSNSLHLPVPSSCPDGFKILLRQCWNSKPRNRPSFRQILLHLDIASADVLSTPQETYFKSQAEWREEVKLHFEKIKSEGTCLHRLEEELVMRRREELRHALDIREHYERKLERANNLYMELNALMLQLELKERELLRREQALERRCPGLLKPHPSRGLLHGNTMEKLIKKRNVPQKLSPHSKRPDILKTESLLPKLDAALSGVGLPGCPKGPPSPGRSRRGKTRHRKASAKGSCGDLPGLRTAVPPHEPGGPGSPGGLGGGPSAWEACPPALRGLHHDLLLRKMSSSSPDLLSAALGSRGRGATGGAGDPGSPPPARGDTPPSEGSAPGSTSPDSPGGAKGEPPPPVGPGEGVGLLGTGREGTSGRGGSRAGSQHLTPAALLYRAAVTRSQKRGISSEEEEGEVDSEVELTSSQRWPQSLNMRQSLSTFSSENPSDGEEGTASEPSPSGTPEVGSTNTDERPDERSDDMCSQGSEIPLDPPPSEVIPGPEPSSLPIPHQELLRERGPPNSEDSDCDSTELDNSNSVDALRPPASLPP
As to the kind of experiment: LZK and DLK Inhibition Assay (competition binding to liganded affinity beads, qPCR readout): DLK. Particulars: kinase produced in HEK-293 cells, 11-point 3-fold dilution series. The method, then: (§1) The kinases were produced in HEK-293 cells and subsequently tagged with DNA for qPCR detection. Streptavidin-coated magnetic beads were treated with biotinylated small molecule ligands for 30 minutes at room temperature to generate affinity resins for the kinase assays. The liganded beads were blocked with excess biotin and washed with blocking buffer (SeaBlock (Pierce), 1% BSA, 0.05% Tween 20, 1 mM DTT) to remove unbound ligand and to reduce non-specific binding. Binding reactions were assembled by combining LZK and DLK kinases, liganded affinity beads, and test compounds in 1× binding buffer (20% SeaBlock, 0.17×PBS, 0.05% Tween 20, 6 mM DTT). Test compounds were prepared as 111× stocks in 100% DMSO. Kds were determined using an 11-point 3-fold compound dilution series with three DMSO control points. All compounds for Kd measurements are distributed by acoustic transfer (non-contact dispensing) in 100% DMSO. The compounds were then diluted directly into the assays such that the final concentration of DMSO was 0.9%. All reactions performed in polypropylene 384-well plate. Each was a final volume of 0.02 mL. The assay plates were incubated at room temperature with shaking for 1 hour and the affinity beads were washed with wash buffer (lx PBS, 0.05% Tween 20). The beads were then re-suspended in elution buffer (1×PBS, 0.05% Tween 20, 0.5 μM nonbiotinylated affinity ligand) and incubated at room temperature with shaking for 30 minutes. The kinase concentration in the eluates was measured by qPCR.

The target in assay [2] is T2, LZK (Homo sapiens, UniProt O43283).
T2 construct: made in house; host or cells: HEK-293 cells
T2 sequence (O43283 1-966): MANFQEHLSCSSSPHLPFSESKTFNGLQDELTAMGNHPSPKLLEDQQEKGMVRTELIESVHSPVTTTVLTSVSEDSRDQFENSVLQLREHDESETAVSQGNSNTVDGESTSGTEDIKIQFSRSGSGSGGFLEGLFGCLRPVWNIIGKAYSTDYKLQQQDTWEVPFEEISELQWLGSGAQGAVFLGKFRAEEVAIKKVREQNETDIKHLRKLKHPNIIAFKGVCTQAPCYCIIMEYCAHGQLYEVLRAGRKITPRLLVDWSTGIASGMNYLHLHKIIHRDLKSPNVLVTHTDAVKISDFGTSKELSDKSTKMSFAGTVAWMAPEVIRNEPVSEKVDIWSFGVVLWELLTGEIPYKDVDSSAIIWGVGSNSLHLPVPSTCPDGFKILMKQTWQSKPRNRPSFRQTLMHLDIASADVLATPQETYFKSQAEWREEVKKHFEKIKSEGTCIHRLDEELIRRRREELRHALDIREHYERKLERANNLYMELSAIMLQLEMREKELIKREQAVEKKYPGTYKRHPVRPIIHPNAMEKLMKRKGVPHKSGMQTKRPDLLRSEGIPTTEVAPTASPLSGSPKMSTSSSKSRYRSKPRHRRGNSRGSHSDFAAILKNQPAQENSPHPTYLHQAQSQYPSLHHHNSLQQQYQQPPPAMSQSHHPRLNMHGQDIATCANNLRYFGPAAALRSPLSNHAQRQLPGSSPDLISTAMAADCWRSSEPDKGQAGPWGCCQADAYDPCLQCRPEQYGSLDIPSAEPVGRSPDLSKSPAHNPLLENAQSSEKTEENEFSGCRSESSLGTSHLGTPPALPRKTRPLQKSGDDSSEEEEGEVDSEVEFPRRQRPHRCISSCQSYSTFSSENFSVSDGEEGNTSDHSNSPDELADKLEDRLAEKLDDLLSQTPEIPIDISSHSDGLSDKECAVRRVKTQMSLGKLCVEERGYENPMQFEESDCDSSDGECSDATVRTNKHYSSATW
In words: LZK and DLK Inhibition Assay (competition binding to liganded affinity beads, qPCR readout): LZK. As to conditions: kinase produced in HEK-293 cells, 11-point 3-fold dilution series. How it is done: as §1
In general terms: Real-time PCR tracks product formation cycle by cycle.

In the case of `Fc1c(C2CCN(CC3CC3)CC2)cc(Nc2cnc(C3CC3)cn2)nc1N1CC2CC2C1` (stereo not shown) [Compound 1, N-(6-(3-Azabicyclo[3.1.0]hexan-3-yl)-4-(1-(cyclopropylmethyl)piperidin-4-yl)-5-fluoropyridin-2-yl)-5-cyclopropylpyrazin-2-amine], the half-inhibitory concentration (IC50) in assay [1] and in assay [2] was at most 100 nM in each case. Consider `Fc1c(C2CCN(CC3CC3)CC2)cc(N2CC3CC3C2)nc1Nc1cnc(C2CC2)cn1` (stereo not shown) [Compound 2, N-(6-(3-Azabicyclo[3.1.0]hexan-3-yl)-4-(1-(cyclopropylmethyl)piperidin-4-yl)-3-fluoropyridin-2-yl)-5-cyclopropylpyrazin-2-amine], for which the IC50 in assay [1] was at most 100 nM; in assay [2], 100 to 1000 nM.

On to `Fc1c(N2CCNCC2)cc(Nc2ccc(C(F)F)cn2)nc1N1CCOCC1` [Compound 3, N-(5-(Difluoromethyl)pyridin-2-yl)-5-fluoro-6-morpholino-4-(piperazin-1-yl)pyridin-2-amine di-TFA salt], for which the IC50 in assay [1] and in assay [2] was 100 to 1000 nM in each case. On to `Fc1c(N2CC3CC2CN3)cc(Nc2ccc(C(F)F)cn2)nc1N1CCOCC1` (stereo not shown) [Compound 4, 4-(2,5-Diazabicyclo[2.2.1]heptan-2-yl)-N-(5-(difluoromethyl)pyridin-2-yl)-5-fluoro-6-morpholinopyridin-2-amine di-TFA salt], for which the IC50 in assay [1] and in assay [2] was 1000 to 10000 nM in each case. On to `Fc1c(N2CCNCC2)cc(Nc2ccc(C(F)(F)F)cn2)nc1N1CCOCC1` [Compound 5, 5-Fluoro-6-morpholino-4-(piperazin-1-yl)-N-(5-(trifluoromethyl)pyridin-2-yl)pyridin-2-amine], for which the IC50 lay within 1000 to 10000 nM in assay [1] and 100 to 1000 nM in assay [2]. For `Fc1c(N2CC3CC2CN3)cc(Nc2ccc(C(F)(F)F)cn2)nc1N1CCOCC1` (stereo not shown) [Compound 6, 4-(2,5-Diazabicyclo[2.2.1]heptan-2-yl)-5-fluoro-6-morpholino-N-(5-(trifluoromethyl)pyridin-2-yl)pyridin-2-amine] the same measures were 1000 to 10000 nM and 1000 to 10000 nM. For `Clc1c(C2CCN(CC3CC3)CC2)cc(Nc2cnc(C3CC3)cn2)nc1N1CC2CC2C1` (stereo not shown) [Compound 7, N-(6-(3-Azabicyclo[3.1.0]hexan-3-yl)-5-chloro-4-(1-(cyclopropylmethyl)piperidin-4-yl)pyridin-2-yl)-5-cyclopropylpyrazin-2-amine TFA salt] the same measures were 1000 to 10000 nM and 1000 to 10000 nM. For `N#Cc1c(C2CCN(CC3CC3)CC2)cc(Nc2cnc(C3CC3)cn2)nc1N1CC2CC2C1` (stereo not shown) [Compound 8, 2-(3-Azabicyclo[3.1.0]hexan-3-yl)-4-(1-(cyclopropylmethyl)piperidin-4-yl)-6-((5-cyclopropylpyrazin-2-yl)amino)nicotinonitrile formic acid salt] the same measures were at most 100 nM and at most 100 nM. With `Nc1c(C2CCN(CC3CC3)CC2)cc(Nc2cnc(C3CC3)cn2)nc1N1CC2CC2C1` (stereo not shown) [Compound 9, 6-(3-azabicyclo[3.1.0]hexan-3-yl)-4-(1-(cyclopropylmethyl)piperidin-4-yl)-N2-(5-cyclopropylpyrazin-2-yl)pyridine-2,5-diamine 2,2,2-trifluoroacetate], the IC50 in assay [1] and in assay [2] was at most 100 nM in each case. The molecule `Fc1c(N2CCNCC2)cc(Nc2cnc(C3CC3)cn2)nc1N1CCOCC1` [Compound 10, 5-Cyclopropyl-N-(5-fluoro-6-morpholino-4-(piperazin-1-yl)pyridin-2-yl)pyrazin-2-amine] had an IC50 in assay [2] of at most 100 nM.
